Test results as given in ChEMBL document CHEMBL1201862, “PubChem BioAssay data set” (2004).
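All cell lines were grown in 96-well plates and treated with compound for 48 hours. Abbreviation: GI50, concentration required for 50% inhibition of growth.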 Calls of active or inactive are those of the source. Cut-off read from the data, not from the text of the source: active = GI50 up to about 1.1 µM and inactive = higher.

How the values were obtained:
Assay in all cases: inhibition of tumour cell growth, NCI panel, 48 h
[1] = test system: DMS-114
[2] = test system: 786-0
[3] = test system: Malme-3M
[4] = test system: SK-MEL-2
[5] = test system: SW-620
[6] = test system: UACC-62
[7] = test system: U-251
[8] = test system: OVCAR-8
[9] = test system: IGROV-1
[10] = test system: BT-549
[11] = test system: COLO 205
[12] = test system: MDA-N
[13] = test system: SF-295
[14] = test system: K562
[15] = test system: SN12C
[16] = test system: CAKI-1
[17] = test system: HCT-15
[18] = test system: SNB-19
[19] = test system: HOP-62
[20] = test system: NCI/ADR-RES

Measured: GI50

COc1ccc(CC2NCCc3cc(OC)c(OC)cc32)cc1Br (stereo not given)
inactive: [1] 17.6 µM | [2] 39.4 µM | [3] 17.3 µM | [4] 27.2 µM | [5] 30.9 µM | [6] 28.9 µM | [7] 34.4 µM | [8] 50.2 µM | [9] 35 µM | [10] 87.5 µM | [11] 16.8 µM | [12] 18.2 µM | [13] 21 µM | [14] 16.6 µM | [15] 36.1 µM | [16] 19.7 µM | [18] 78.3 µM | [19] 35.6 µM | [20] 62.5 µM
> 100 µM: [17]

Nc1nc(F)nc2c1ncn2C1OC(COP(=O)(O)O)C(O)C1O (stereo not given)
175 µM: [17]
inactive: [1] 10.7 µM | [2] 39.5 µM | [3] 23.3 µM | [4] 31.4 µM | [5] 64.9 µM | [6] 56.2 µM | [7] 231 µM | [8] 2.91 µM | [9] 286 µM | [10] 56.2 µM | [11] 95.1 µM | [12] 34 µM | [13] 309 µM | [14] 111 µM | [15] 6.47 µM | [16] 8.17 µM | [18] 25.1 µM | [19] 8.53 µM | [20] 4.11 µM

CN(C)[C@H]1CC[C@H]2[C@@H]3CCC4C[C@@H](NC(=O)NC(Cc5ccccc5)c5nccs5)CC[C@]4(C)[C@H]3CC[C@]12C (stereo not given in full)
0.687 µM: [17]
active: [2] 0.512 µM | [4] 1.1 µM | [5] 0.687 µM | [7] 0.698 µM | [8] 0.667 µM | [11] 0.82 µM | [12] 0.35 µM | [13] 0.757 µM | [14] 0.128 µM | [15] 0.348 µM | [19] 0.826 µM
inactive: [1] 1.79 µM | [3] 1.85 µM | [6] 1.92 µM | [9] 1.87 µM | [10] 1.79 µM | [16] 1.7 µM | [18] 1.79 µM | [20] 1.77 µM
